ChEMBL document CHEMBL2021894, “The Discovery of VX-745: A Novel and Selective p38α Kinase Inhibitor” (ACS Med Chem Lett, 2011)
pIC50: −log10 of the molar value.

What was measured:
[1] = molecular target: T1, Mitogen-activated protein kinase 14 (Homo sapiens, UniProt Q16539); test: Inhibition of p38alpha in human PBMC assessed as inhibition of LPS-induced IL1beta production after 16 to 18 hrs by ELISA
[2] = molecular target: T1, Mitogen-activated protein kinase 14; test: Inhibition of p38alpha in human PBMC assessed as inhibition of LPS-induced TNFalpha production after 16 to 18 hrs by ELISA
[3] = molecular target: T1, Mitogen-activated protein kinase 14; test: Inhibition of p38alpha kinase using KRELVEPLTPSGEAPNQALLR as substrate for 20 mins by lactate dehydrogenase-coupled spectrophotometric assay

T1 sequence (Q16539 whole entry): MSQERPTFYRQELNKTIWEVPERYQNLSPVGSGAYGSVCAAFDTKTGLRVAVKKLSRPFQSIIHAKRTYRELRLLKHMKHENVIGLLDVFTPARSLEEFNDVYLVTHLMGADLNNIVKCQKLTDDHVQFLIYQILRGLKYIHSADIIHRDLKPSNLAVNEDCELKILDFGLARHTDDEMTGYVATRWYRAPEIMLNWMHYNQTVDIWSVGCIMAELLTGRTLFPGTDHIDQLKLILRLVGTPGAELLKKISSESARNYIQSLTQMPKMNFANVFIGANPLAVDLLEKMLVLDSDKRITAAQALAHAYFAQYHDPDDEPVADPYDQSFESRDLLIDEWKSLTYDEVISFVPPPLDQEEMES

Nc1cc(F)ccc1Sc1ccc2c(-c3c(Cl)cccc3Cl)c(=O)ncn2n1
pIC50 [1]: 6.55 | pIC50 [2]: 5.92 | pIC50 [3]: 6.66

O=c1ncn2nc(Sc3ccc(F)c(Cl)c3)ccc2c1-c1c(Cl)cccc1Cl
pIC50 [1]: 6.74 | pIC50 [2]: 6.32 | pIC50 [3]: 6.30

O=c1ncn2nc(Sc3ccccc3)ccc2c1-c1ccccc1
pIC50 [3]: < 4.70

Cc1ccccc1Sc1ccc2c(-c3c(Cl)cccc3Cl)c(=O)ncn2n1
pIC50 [1]: 6.48 | pIC50 [2]: 5.43 | pIC50 [3]: 6.70

O=c1ncn2nc(Sc3cccc(F)c3)ccc2c1-c1c(Cl)cccc1Cl
pIC50 [1]: 6.36 | pIC50 [2]: 6.14

Cc1cc(Cl)ccc1Sc1ccc2c(-c3c(Cl)cccc3Cl)c(=O)ncn2n1
pIC50 [1]: 6.74 | pIC50 [2]: 6.80 | pIC50 [3]: 6.74

O=c1ncn2nc(Sc3ccc(F)cc3Cl)ccc2c1-c1c(Cl)cccc1Cl
pIC50 [1]: 7.28 | pIC50 [2]: 6.56 | pIC50 [3]: 7.44

COc1ccccc1-c1c(=O)ncn2nc(Sc3ccccc3)ccc12
pIC50 [1]: 5.55 | pIC50 [3]: 4.92

O=c1ncn2nc(Sc3cccc(Cl)c3)ccc2c1-c1c(Cl)cccc1Cl
pIC50 [3]: 6.55

CCc1ccccc1Sc1ccc2c(-c3c(Cl)cccc3Cl)c(=O)ncn2n1
pIC50 [1]: 6.01 | pIC50 [2]: 5.55 | pIC50 [3]: 6.12

O=c1ncn2nc(Sc3ccccc3)ccc2c1-c1c(Cl)cccc1Cl
pIC50 [1]: 6.40 | pIC50 [2]: 6.34 | pIC50 [3]: 6.60

O=c1ncn2nc(Sc3ccccc3)ccc2c1-c1ccc(F)cc1
pIC50 [2]: < 4.70 | pIC50 [3]: < 4.70

Cc1ccccc1-c1c(=O)ncn2nc(Sc3ccccc3)ccc12
pIC50 [2]: 5.01 | pIC50 [3]: 5.36

Cc1cccc(Sc2ccc3c(-c4c(Cl)cccc4Cl)c(=O)ncn3n2)c1
pIC50 [3]: 5.85

O=c1ncn2nc(Sc3ccccc3)ccc2c1-c1ccccc1Cl
pIC50 [3]: 5.39

O=c1ncn2nc(Sc3ccccc3)ccc2c1-c1ccc(Cl)cc1Cl
pIC50 [1]: 4.70 | pIC50 [2]: 4.70 | pIC50 [3]: 5.30

Cc1ccc(Sc2ccc3c(-c4c(Cl)cccc4Cl)c(=O)ncn3n2)cc1C
pIC50 [1]: 5.62 | pIC50 [2]: 5.46 | pIC50 [3]: 5.72

Cc1ccc(Sc2ccc3c(-c4c(Cl)cccc4Cl)c(=O)ncn3n2)c(C)c1
pIC50 [1]: 6.16 | pIC50 [2]: 6.49 | pIC50 [3]: 6.59

O=c1ncn2nc(Sc3ccc(F)cc3)ccc2c1-c1c(Cl)cccc1Cl
pIC50 [2]: 6.53 | pIC50 [3]: 6.91

O=c1ncn2nc(Sc3ccccc3)ccc2c1-c1ccccc1C(F)(F)F
pIC50 [1]: 5.68 | pIC50 [2]: < 4.70 | pIC50 [3]: 4.96

O=c1ncn2nc(Sc3ccccc3O)ccc2c1-c1c(Cl)cccc1Cl
pIC50 [1]: 6.85 | pIC50 [2]: 6.31 | pIC50 [3]: 6.44

O=c1ncn2nc(Sc3ccccc3)ccc2c1-c1c(F)cccc1C(F)(F)F
pIC50 [1]: 6.00 | pIC50 [2]: 5.51 | pIC50 [3]: 5.77

O=c1ncn2nc(Sc3ccc(Cl)c(Cl)c3)ccc2c1-c1c(Cl)cccc1Cl
pIC50 [2]: 5.92 | pIC50 [3]: 6.10

Cc1ccc(Sc2ccc3c(-c4c(Cl)cccc4Cl)c(=O)ncn3n2)cc1
pIC50 [1]: 6.43 | pIC50 [3]: 5.85

O=c1ncn2nc(Sc3ccccc3)ccc2c1-c1c(F)cccc1F
pIC50 [1]: 5.43 | pIC50 [2]: 4.82 | pIC50 [3]: 5.46
